Key:
5-HT1A receptor = target: T1, 5-HT1A receptor (Homo sapiens, UniProt P08908); experiment: Radioligand binding assay, 5-HT1A receptor; details: mean ± SD, triplicate at 7 concentrations, Cheng-Prusoff; read-out: Affinity Ki 5-HT1AR
T1 construct: host or cells: cell membranes from cultured cells
T1 sequence (P08908 1-422): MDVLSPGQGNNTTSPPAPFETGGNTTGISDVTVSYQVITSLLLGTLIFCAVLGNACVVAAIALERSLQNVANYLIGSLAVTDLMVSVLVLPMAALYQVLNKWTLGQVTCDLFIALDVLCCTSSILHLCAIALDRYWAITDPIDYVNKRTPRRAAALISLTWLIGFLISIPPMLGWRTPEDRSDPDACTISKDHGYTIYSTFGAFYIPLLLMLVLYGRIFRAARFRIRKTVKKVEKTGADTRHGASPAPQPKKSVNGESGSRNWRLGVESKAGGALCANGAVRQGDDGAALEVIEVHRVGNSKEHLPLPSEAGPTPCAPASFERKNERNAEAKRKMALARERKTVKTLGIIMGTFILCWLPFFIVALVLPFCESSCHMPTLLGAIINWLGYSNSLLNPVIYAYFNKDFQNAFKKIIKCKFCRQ
Description: (§1) The affinity of the studied compounds to 5-HT1A, 5-HT2A, 5-HT6, 5-HT7, and D2 receptors was evaluated by a radioligand assay, as reported previously (Table 1). Each compound was tested in triplicate at seven concentrations (from 0.1 nM to 100 µM). Inhibition constants (Ki) were calculated from the Cheng–Prusoff equation [23].
(§2) The cell culture, cell membranes, and radioligand binding assays were performed in accordance with standard protocols.

Danio rerio [1] = experiment: In vivo cardiotoxicity (heart rate, malformations) in zebrafish embryos; details: 96 h
Description: (§3) The compounds were evaluated for their ecotoxicity on the Danio rerio experimental model. OECD 236 test with modifications was applied. Both compounds were found cardiotoxic within the non-toxic range, based on the heart rate measurement. For the compound 2, 5 µg/mL was found cardiotoxic (Figure 10) and for 12, 7.5 µg/mL (Figure 11). The results were confirmed by malformations observation. […] Moreover, scoliosis (S) and tail autophagy (TA) were also noted.
To determine the toxicity of the compounds, the fish embryo toxicity (FET) test was performed on zebrafish (Danio rerio) according to OECD Test Guideline 236. The collected embryos were transferred to a Petri dish with E3 medium (5 mM NaCl, 0.33 mM MgCl2, 0.33 mM CaCl2, 0.17 mM KCl; pH 7.2) and then placed in 6-well plates, 10 embryos per well. Stock solutions 2 and 12 were prepared in DMSO. In these experiments, the range of different concentrations of the solutions was prepared by dissolving stock solutions in the E3 medium each time directly before addition to the wells. The solutions were changed once daily, and the embryos were maintained in the incubator at 28.5 °C. At the end of the exposure period (96 hpf–hours postfertilization), acute toxicity was determined based on a positive outcome in any of the four visual indicators of lethality, including the coagulation of fertilized eggs, lack of somite formation, lack of detachment of the tailbud from the yolk sac and lack of heartbeat. The value of LD50 was calculated. Heartbeats were recorded to observe cardiotoxic effects. Moreover, images of the fish from each group were taken at the final time point to monitor the occurrence of developmental malformations. For the observations, a Discovery V8 Stereo optical microscope and Zeiss hardware were used. A dose-response curve was generated using Prism 8.0.1 (GraphPad Software) by fitting a sigmoid curve model to experimental data points. The concentrations of the compounds of interest causing 50% mortality (LD50) of 96 hpf larvae of Danio rerio were calculated.

CYP3A4 = CYP3A4 (Homo sapiens, UniProt P08684); experiment: CYP3A4 activity (drug-drug interaction) assay; assay type: in vitro ADME; details: for inhibition activity toward CYP3A4 (in words): compound at 1 µM (concentration of ketoconazole) or lower; for %CYP3A4 activity: negative control = 100%
Chain of CYP3A4 (P08684 whole entry): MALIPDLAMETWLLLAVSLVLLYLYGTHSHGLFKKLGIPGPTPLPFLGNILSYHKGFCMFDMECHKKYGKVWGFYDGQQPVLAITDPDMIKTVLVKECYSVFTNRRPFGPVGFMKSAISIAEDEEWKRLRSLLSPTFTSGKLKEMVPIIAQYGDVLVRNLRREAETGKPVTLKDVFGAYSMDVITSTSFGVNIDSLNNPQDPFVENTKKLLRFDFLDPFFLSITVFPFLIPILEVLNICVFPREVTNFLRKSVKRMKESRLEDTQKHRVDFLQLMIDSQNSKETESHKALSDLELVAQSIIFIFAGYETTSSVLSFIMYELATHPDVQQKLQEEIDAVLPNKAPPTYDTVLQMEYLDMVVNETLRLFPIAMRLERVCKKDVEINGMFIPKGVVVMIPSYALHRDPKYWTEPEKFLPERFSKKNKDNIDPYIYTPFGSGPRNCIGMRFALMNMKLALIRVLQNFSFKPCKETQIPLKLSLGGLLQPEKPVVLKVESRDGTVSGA
Description: Potential drug–drug interactions (DDIs) are an important aspect that should be considered when designing new compounds. Isoenzyme CYP3A4 is one of the varieties of enzymes responsible for xenobiotic metabolism. We evaluated active compounds 2 and 12 in terms of affinity toward this isoenzyme (Figure 8).
(§4) All assays were performed according to the protocols described previously.
Figure 8 The influence of 2 (left), 12 (right), and ketoconazole (KE) on CYP3A4 activity. Statistical significance (** p < 0.01, **** p < 0.0001) was analyzed by Graph Pad Prism 8.0.1 software using One-way ANOVA and Bonferroni’s Multiple Comparison Post Test in comparison with the negative control (100% of CYP3A4 activity). The compounds were examined in triplicate.

Danio rerio [2] = experiment: Fish embryo toxicity (FET) test, OECD 236, mortality; assay type: in vivo; details: 96 hpf larvae, 96 h incubation at 28 °C
Description: as §3
To determine the toxicity of the compounds, the fish embryo toxicity (FET) test was performed on zebrafish (Danio rerio) according to OECD Test Guideline 236. The collected embryos were transferred to a Petri dish with E3 medium (5 mM NaCl, 0.33 mM MgCl2, 0.33 mM CaCl2, 0.17 mM KCl; pH 7.2) and then placed in 6-well plates, 10 embryos per well. Stock solutions 2 and 12 were prepared in DMSO. […] At the end of the exposure period (96 hpf–hours postfertilization), acute toxicity was determined based on a positive outcome in any of the four visual indicators of lethality, including the coagulation of fertilized eggs, lack of somite formation, lack of detachment of the tailbud from the yolk sac and lack of heartbeat. The value of LD50 was calculated. Heartbeats were recorded to observe cardiotoxic effects. […]

5-HT6 receptor = target: T2, 5-HT6 receptor (Homo sapiens, UniProt P50406); experiment: Radioligand binding assay, 5-HT6 receptor; details: mean ± SD, triplicate at 7 concentrations, Cheng-Prusoff; read-out: Affinity Ki 5-HT6R
T2 construct: host or cells: cell membranes from cultured cells
T2 sequence (P50406 whole entry): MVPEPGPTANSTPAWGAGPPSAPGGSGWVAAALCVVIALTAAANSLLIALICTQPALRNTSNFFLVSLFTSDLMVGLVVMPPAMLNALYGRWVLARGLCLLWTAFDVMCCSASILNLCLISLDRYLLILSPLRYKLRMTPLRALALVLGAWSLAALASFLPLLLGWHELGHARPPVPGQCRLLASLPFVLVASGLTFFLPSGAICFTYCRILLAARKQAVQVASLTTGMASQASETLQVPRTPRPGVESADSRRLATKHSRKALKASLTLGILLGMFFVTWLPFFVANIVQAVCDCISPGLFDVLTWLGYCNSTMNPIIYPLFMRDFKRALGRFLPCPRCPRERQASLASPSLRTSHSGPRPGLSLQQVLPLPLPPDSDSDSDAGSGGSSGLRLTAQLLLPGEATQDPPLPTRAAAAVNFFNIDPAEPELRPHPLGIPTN
Description: as §1, §2

5-HT2A receptor = target: T3, 5-HT2A receptor (Homo sapiens, UniProt P28223); experiment: Radioligand binding assay, 5-HT2A receptor; details: mean ± SD, triplicate at 7 concentrations, Cheng-Prusoff; read-out: Affinity Ki 5-HT2AR
T3 construct: host or cells: cell membranes from cultured cells
T3 sequence (P28223 whole entry): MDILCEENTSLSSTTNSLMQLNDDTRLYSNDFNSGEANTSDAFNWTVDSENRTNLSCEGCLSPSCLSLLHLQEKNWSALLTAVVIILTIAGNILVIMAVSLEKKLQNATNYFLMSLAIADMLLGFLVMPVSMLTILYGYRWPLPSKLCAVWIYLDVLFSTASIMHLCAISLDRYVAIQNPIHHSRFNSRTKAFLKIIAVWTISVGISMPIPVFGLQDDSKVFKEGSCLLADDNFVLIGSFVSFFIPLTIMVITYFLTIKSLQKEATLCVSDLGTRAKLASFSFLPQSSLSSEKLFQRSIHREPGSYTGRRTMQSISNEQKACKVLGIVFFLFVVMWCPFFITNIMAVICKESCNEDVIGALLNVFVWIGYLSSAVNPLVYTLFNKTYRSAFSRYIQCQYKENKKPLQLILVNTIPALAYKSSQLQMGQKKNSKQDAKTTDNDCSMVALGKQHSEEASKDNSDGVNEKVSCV
Description: as §1, §2

5-HT7 receptor = target: T4, 5-HT7 receptor (Homo sapiens, UniProt P34969); experiment: Radioligand binding assay, 5-HT7 receptor; details: for Ki: mean ± SD, triplicate at 7 concentrations, Cheng-Prusoff, read-out: Affinity Ki 5-HT7R
T4 construct: host or cells: cell membranes from cultured cells
T4 sequence (P34969 1-432 limits assumed): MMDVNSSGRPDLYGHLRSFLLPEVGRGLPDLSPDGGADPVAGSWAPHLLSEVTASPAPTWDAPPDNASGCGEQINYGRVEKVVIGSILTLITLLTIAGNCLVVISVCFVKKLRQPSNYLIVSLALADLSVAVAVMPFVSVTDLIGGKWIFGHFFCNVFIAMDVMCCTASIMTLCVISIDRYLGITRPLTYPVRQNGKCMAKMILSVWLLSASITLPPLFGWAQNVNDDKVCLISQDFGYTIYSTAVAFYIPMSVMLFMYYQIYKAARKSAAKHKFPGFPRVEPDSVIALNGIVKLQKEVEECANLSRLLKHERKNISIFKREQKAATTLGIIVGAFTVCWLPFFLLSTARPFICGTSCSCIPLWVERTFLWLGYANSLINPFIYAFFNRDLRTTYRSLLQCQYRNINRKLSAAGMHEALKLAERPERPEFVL
Description: as §1, §2

[3] = Hepatotoxicity: HepG2 cell line viability; assay type: cell-based; details: human, HepG2 cells; HepG2, 50 µM, 72 h incubation
Description: (§5) The tested compounds 2 and 12 were evaluated in terms of cytotoxicity against the HepG2 cell line to assess their hepatotoxic potential (Figure 9). […].
as §4
(§6) Figure 9 The effect of cytostatic drug doxorubicin and 2 (left), 12 (right) on hepatoma HepG2 cell line viability after 72 h of incubation at 37°, 5% CO2. The statistical significance (GraphPad Prism 8.0.1) was evaluated by a one–way ANOVA, followed by Bonferroni’s Comparison Test (* p < 0.05, ** p < 0.01, and **** p < 0.0001 compared with negative control DMSO 1% in growth media.

HepG2 cell line = experiment: Hepatotoxicity: HepG2 cell line viability; assay type: cell-based; details: 72 h incubation; for cell viability (in words): HepG2, 100 µM; for effect on HepG2 cells at lower concentrations (in words): HepG2, <10 µM
Description: as §5, §4, §6

[4] = Metabolic stability in mouse liver microsomes (MLMs), UHPLC-MS; assay type: in vitro ADME; details: for Metabolic Pathway: metabolites M1, M2 ... in order, after incubation with MLMs; for remaining at 2 h: mouse, liver microsomes; for remaining at 2 h / % Remaining: original compound remaining after 2 h (120 min) incubation with MLMs
Description: It seems, however, that substituents at the B ring of the ligands have a more important role. […] The data correspond to our previous results, in which substituents at the B ring increased metabolic stability. Potential sites in the molecules sensitive to enzyme activity and leading to degradation were proposed using an in silico approach, also with MetaSite 6.0.1 (Figure 7).
as §4

D2 receptor = target: T5, D2 receptor (Homo sapiens, UniProt P14416); experiment: Radioligand binding assay, D2 receptor; details: mean ± SD, triplicate at 7 concentrations, Cheng-Prusoff; read-out: Affinity Ki D2R
T5 construct: host or cells: cell membranes from cultured cells
T5 sequence (P14416 whole entry): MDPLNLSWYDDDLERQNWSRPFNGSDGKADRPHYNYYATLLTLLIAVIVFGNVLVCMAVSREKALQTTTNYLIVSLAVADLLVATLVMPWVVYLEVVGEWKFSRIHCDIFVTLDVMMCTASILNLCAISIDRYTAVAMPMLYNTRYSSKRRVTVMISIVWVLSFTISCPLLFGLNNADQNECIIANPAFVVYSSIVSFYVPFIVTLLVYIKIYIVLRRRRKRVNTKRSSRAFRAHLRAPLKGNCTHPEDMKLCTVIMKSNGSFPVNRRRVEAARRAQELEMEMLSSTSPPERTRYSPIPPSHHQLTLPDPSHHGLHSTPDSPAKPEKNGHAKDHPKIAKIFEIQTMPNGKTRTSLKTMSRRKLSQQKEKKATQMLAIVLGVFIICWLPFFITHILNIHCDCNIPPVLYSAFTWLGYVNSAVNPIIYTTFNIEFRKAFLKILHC
Description: as §1, §2

| SMILES | Ki (5-HT1A receptor) | concentration at which pericardial edema (PE) was observed (Danio rerio [1]) | concentration found cardiotoxic (heart rate measurement) (Danio rerio [1]) | inhibition activity toward CYP3A4 (in words) (CYP3A4) | %CYP3A4 activity (CYP3A4; compound at 10 µM) | %CYP3A4 activity (CYP3A4; compound at 25 µM) | LD50 (mortality) (Danio rerio [2]) | Ki (5-HT6 receptor) | Ki (5-HT2A receptor) | Ki (5-HT7 receptor) | viability at 72 h, 50 µM [3] | cell viability (in words) (HepG2 cell line) | effect on HepG2 cells at lower concentrations (in words) (HepG2 cell line) | Metabolic Pathway [4] | remaining at 2 h [4] | % Remaining [4] | Ki (D2 receptor) | activity with respect to 5-HT7R (in words) (5-HT7 receptor; SAR discussion of radioligand data) |
| --- | --- | --- | --- | --- | --- | --- | --- | --- | --- | --- | --- | --- | --- | --- | --- | --- | --- | --- |
| Cl.Nc1nc(NCCc2ccccc2)nc(NCCc2c[nH]c3ccc(F)cc23)n1 [Compound 2, N^2-(2-(5-Fluoro-1H-Indol-3-yl)ethyl)-N^4-Phenethyl-1,3,5-Triazine-2,4,6-Triamine Hydrochloride] | 13900 nM | 5000 ng/mL | 5000 ng/mL | no or slight inhibition activity | 50% | < 15% | 4.869 µg/mL | 505 ± 61 nM | 413 ± 67 nM | 8 ± 2 nM | 35% | practically no viable | proliferative activity | hydroxylation ketone formation double hydroxylation dehydrogenation dehydrogenation double hydroxylation hydroxylation ketone formation and hydroxylation hydroxylation | 20% | 19.79% | – | – |
| Cl.Nc1nc(NCCNc2ccc(F)cc2)nc(NCCc2c[nH]c3ccccc23)n1 [Compound 12, N^2-(2-(1H-Indol-3-yl)ethyl)-N^4-(2-((4-Fluorophenyl)amino)ethyl)-1,3,5-Triazine-2,4,6-Triamine Hydrochloride] | 43300 nM | 7500 ng/mL | 7500 ng/mL | no or slight inhibition activity | 20% | < 15% | 16.95 µg/mL | 1630 ± 301 nM | 3570 ± 491 nM | 18 ± 3 nM | 20% | practically no viable | proliferative activity | decomposition hydroxylation dehydrogenation dehydrogenation double hydroxylation hydroxylation dehydrogenation | 29% | 29.12% | 3000 ± 679 nM | active |

From publication PMC9656787, “Design, Synthesis and Biological Evaluation of Novel 1,3,5-Triazines: Effect of Aromatic Ring Decoration on Affinity to 5-HT7 Receptor” (International Journal of Molecular Sciences, 2022)
